According to ChEMBL document CHEMBL1909046, “DrugMatrix in vitro pharmacology data”:

How the values were obtained:
[1] = target: Protein kinase C alpha type (Homo sapiens, UniProt P17252); assay type: cell-based; conditions: sf9;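 further: inhibition of PKCalpha kinase activity measured in an enzyme assay with histone as the phosphorylation substrate; in other assays of this panel Not Active means under 50% inhibition at 10 µM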
[2] = target: Mitogen-activated protein kinase 3 (Homo sapiens, UniProt P27361); assay: DRUGMATRIX: Protein Serine/Threonine Kinase, ERK1 enzyme inhibition (substrate: Myelin Basic Protein); set-up: species or system Escherichia coli; conditions: Not Active = under 50% inhibition at 10 µM
Sequence of Mitogen-activated protein kinase 3 (P27361 whole entry): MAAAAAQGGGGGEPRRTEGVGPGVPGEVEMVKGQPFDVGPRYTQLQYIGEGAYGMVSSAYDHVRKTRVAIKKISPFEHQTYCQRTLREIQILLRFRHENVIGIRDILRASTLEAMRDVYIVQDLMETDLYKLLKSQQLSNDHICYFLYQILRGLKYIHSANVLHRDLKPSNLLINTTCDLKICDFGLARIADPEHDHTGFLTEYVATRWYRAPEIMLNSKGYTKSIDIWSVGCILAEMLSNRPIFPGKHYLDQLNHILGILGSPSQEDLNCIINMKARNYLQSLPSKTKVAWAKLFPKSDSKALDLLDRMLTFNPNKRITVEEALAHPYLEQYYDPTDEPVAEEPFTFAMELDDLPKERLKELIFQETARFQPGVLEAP

[3] = target: Cytochrome P450 2C19 (Homo sapiens, UniProt P33261); conditions: bti-tn-5b1-4; further: in other assays of this panel Not Active means under 50% inhibition at 10 µM
Sequence of Cytochrome P450 2C19 (P33261 whole entry): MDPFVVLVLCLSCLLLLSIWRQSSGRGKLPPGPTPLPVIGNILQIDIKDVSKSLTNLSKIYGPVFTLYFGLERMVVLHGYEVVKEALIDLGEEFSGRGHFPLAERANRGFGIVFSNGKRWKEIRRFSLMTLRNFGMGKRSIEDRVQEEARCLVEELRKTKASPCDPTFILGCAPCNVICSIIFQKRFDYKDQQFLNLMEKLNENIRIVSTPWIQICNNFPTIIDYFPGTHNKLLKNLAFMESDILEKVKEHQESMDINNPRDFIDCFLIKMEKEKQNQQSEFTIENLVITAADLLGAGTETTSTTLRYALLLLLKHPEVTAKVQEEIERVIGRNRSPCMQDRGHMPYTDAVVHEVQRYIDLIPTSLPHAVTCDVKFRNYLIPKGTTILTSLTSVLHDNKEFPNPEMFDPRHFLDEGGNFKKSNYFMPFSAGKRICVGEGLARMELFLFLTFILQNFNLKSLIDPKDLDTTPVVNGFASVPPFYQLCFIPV

[4] = DRUGMATRIX: Serotonin (5-Hydroxytryptamine) 5-HT3 radioligand binding (ligand: [3H] GR-65630); assay type: cell membranes, Membrane; conditions: hek293; Not Active = under 50% inhibition at 10 µM
[5] = target: Sodium-dependent dopamine transporter (Homo sapiens, UniProt Q01959); assay: DRUGMATRIX: Dopamine Transporter radioligand binding (ligand: [125I] RTI-55); assay type: cell membranes, CHO-K1, Membrane; conditions: Not Active = under 50% inhibition at 10 µM
Sequence of Sodium-dependent dopamine transporter (Q01959 whole entry): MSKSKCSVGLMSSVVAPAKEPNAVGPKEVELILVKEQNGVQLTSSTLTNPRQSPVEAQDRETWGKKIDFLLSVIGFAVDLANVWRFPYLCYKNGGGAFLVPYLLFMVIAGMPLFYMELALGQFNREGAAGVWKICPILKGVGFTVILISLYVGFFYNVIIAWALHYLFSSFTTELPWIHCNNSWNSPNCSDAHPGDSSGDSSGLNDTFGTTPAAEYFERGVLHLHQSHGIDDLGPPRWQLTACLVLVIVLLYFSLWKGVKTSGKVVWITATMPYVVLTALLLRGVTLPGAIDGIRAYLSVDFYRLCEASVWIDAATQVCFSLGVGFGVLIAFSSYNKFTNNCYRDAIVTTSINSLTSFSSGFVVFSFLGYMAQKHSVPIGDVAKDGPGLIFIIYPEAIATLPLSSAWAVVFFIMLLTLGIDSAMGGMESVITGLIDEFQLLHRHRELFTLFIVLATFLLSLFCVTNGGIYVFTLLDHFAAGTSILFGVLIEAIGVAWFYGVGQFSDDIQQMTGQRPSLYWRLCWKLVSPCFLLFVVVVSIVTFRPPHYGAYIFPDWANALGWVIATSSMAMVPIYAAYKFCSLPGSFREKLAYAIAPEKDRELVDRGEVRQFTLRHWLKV

[6] = target: Substance-P receptor (Homo sapiens, UniProt P25103); assay type: cell membranes, Membrane; conditions: cho; further: in other assays of this panel Not Active means under 50% inhibition at 10 µM
Sequence of Substance-P receptor (P25103 whole entry): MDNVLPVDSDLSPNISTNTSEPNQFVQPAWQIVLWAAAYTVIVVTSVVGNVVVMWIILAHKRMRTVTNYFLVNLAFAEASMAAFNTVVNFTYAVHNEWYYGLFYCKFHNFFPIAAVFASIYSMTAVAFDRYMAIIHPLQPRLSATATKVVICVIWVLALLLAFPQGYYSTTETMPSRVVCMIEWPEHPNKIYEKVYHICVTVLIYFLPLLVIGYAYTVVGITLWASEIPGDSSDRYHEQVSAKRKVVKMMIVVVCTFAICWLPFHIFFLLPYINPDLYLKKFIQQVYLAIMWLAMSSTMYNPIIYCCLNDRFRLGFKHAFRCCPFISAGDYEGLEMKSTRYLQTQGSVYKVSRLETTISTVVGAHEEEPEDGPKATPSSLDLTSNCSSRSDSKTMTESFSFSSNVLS

[7] = DRUGMATRIX: GABAA, Chloride Channel, TBOB radioligand binding (ligand: [3H] TBOB); assay type: cell membranes, Rattus norvegicus, Wistar, Cerebral cortex, Membrane; conditions: Not Active = under 50% inhibition at 10 µM

| Compound | IC50 [1] | IC50 [2] | IC50 [3] | Ki [3] | IC50 [4] | Ki [4] | IC50 ([5]; cho-k1) | IC50 [6] | IC50 [7] | Ki [7] | IC50 ([7]; read-out: IC50) | Ki ([7]; read-out: Ki) | Ki [1] | Ki [2] | Ki ([5]; cho-k1) | Ki [6] | IC50 ([5]; read-out: IC50) | Ki ([5]; read-out: Ki) |
| --- | --- | --- | --- | --- | --- | --- | --- | --- | --- | --- | --- | --- | --- | --- | --- | --- | --- | --- |
| O=c1[nH]c2ccccc2c2ccccc12 | Not Active | Not Active | Not Active | Not Active | Not Active | Not Active | Not Active | Not Active | Not Active | Not Active |  |  |  |  |  |  |  |  |
| C=CCN1CC[C@]23c4c5ccc(O)c4O[C@H]2/C(=N/N=C2\CC[C@@]4(O)[C@H]6Cc7ccc(O)c8c7[C@@]4(CCN6CC=C)[C@H]2O8)CC[C@@]3(O)[C@H]1C5 [NALOXONAZINE] | Not Active | Not Active | Not Active | Not Active | Not Active | Not Active | Not Active | Not Active | Not Active | Not Active |  |  |  |  |  |  |  |  |
| ClC1=C(Cl)[C@]2(Cl)[C@@H]3[C@@H]4C[C@@H]([C@H]5O[C@@H]45)[C@@H]3[C@@]1(Cl)C2(Cl)Cl [DIELDRIN] | Not Active | Not Active | Not Active | Not Active | Not Active | Not Active | Not Active | Not Active |  |  | 335 nM | 300 nM |  |  |  |  |  |  |
| COPPER(II) OXIDE | Not Active | Not Active | Not Active | Not Active | Not Active | Not Active | Not Active | Not Active | Not Active | Not Active |  |  | Not Active | Not Active | Not Active | Not Active |  |  |
| CCO [ALCOHOL] | Not Active | Not Active | Not Active | Not Active | Not Active | Not Active | Not Active | Not Active | Not Active | Not Active |  |  |  |  |  |  |  |  |
| CC(N)Cc1c[nH]c2ccc(OCc3cccs3)cc12 (stereo unspecified) [BW-723C86] | Not Active | Not Active | Not Active | Not Active | Not Active | Not Active |  | Not Active | Not Active | Not Active |  |  |  |  |  |  | 2680 nM | 2130 nM |
| c1ccc2sc(SSc3nc4ccccc4s3)nc2c1 [BENZOTHIAZYL DISULFIDE] | Not Active | Not Active | Not Active | Not Active | Not Active | Not Active |  | Not Active | Not Active | Not Active |  |  |  |  |  |  | 245 nM | 194 nM |
| CC(C)Cc1ccc([C@H](C)C(=O)O)cc1 [DEXIBUPROFEN] | Not Active | Not Active | Not Active | Not Active | Not Active | Not Active | Not Active | Not Active | Not Active | Not Active |  |  |  |  |  |  |  |  |
| Cl.NC[C@H]1CC[C@H](C(=O)Oc2ccc(CCC(=O)O)cc2)CC1 [CETRAXATE HYDROCHLORIDE] | Not Active | Not Active | Not Active | Not Active | Not Active | Not Active | Not Active | Not Active | Not Active | Not Active |  |  |  |  |  |  |  |  |
| Nc1nc(N)c2nc(CNc3ccc(C(=O)N[C@@H](CCC(=O)O)C(=O)O)cc3)cnc2n1 [AMINOPTERIN] | Not Active | Not Active | Not Active | Not Active | Not Active | Not Active | Not Active | Not Active | Not Active | Not Active |  |  |  |  |  |  |  |  |
| NC(=O)NC(=O)Cc1ccccc1 [PHENACEMIDE] | Not Active | Not Active | Not Active | Not Active | Not Active | Not Active | Not Active | Not Active | Not Active | Not Active |  |  |  |  |  |  |  |  |
| C[N+](C)(C)CCOC(N)=O.[Cl-] [CARBACHOL] | Not Active | Not Active | Not Active | Not Active | Not Active | Not Active | Not Active | Not Active | Not Active | Not Active |  |  |  |  |  |  |  |  |
